Reference: patent publication US12077503B2, “Substituted cyclic amides and their use as herbicides” (FMC CORPORATION, priority 2015, dated 2024)

Experiments:
Type in all cases: in vivo
[1] = tested on: ivy-leaved morning glory (Ipomoea hederacea); assay: Test G Pre-Emergence Protocol; conditions: Ipomoea, pre-emergence, 312 h, evaluated after 13 days; for pest or weed control at 15.625 g/ha: 15.625 g ai/ha; for pest or weed control at 15.625 g/ha / pest or weed control at 250 g/ha: read-out: Morningglory, Ivy-leaved damage rating (100=total damage to plant; 0=no damage to plant); for pest or weed control at 62.5 g/ha: 62.5 g ai/ha, 100=total damage to plant, 0=no damage to plant, read-out: Morningglory, Ivy-leaved damage rating; for pest or weed control at 250 g/ha: 250 g ai/ha
Procedure, shortened: (§1)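 Glasshouse pre-emergence test: soil-sown seeds, sprayed after 1 d at 15.625, 62.5 or 250 g/ha. Conditions 24/16° C day/night, 14 h light, 65% humidity, watering twice daily. Rating 13 d post-spray (100 = total damage).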

[2] = tested on: barnyardgrass (Echinochloa crus-galli); assay: Test G Pre-Emergence Protocol; conditions: Echinochloa crus-galli, pre-emergence, 312 h, evaluated after 13 days; for pest or weed control at 15.625 g/ha: 15.625 g ai/ha; for pest or weed control at 15.625 g/ha / pest or weed control at 250 g/ha: read-out: Barnyardgrass damage rating (100=total damage to plant; 0=no damage to plant); for pest or weed control at 62.5 g/ha: 62.5 g ai/ha, 100=total damage to plant, 0=no damage to plant, read-out: Barnyardgrass damage rating; for pest or weed control at 250 g/ha: 250 g ai/ha
Procedure, shortened: as §1

[3] = tested on: velvetleaf (Abutilon theophrasti); assay: Test G Pre-Emergence Protocol; conditions: Abutilon theophrasti, pre-emergence, 312 h, evaluated after 13 days; for pest or weed control at 15.625 g/ha: 15.625 g ai/ha; for pest or weed control at 15.625 g/ha / pest or weed control at 250 g/ha: read-out: Velvetleaf damage rating (100=total damage to plant; 0=no damage to plant); for pest or weed control at 62.5 g/ha: 62.5 g ai/ha, 100=total damage to plant, 0=no damage to plant, read-out: Velvetleaf damage rating; for pest or weed control at 250 g/ha: 250 g ai/ha
Procedure, shortened: as §1

corn (Zea mays) [4] = assay: Test G Pre-Emergence Protocol; conditions: Zea mays, pre-emergence, 312 h, evaluated after 13 days; for plant injury at 15.625 g/ha: 15.625 g ai/ha; for plant injury at 15.625 g/ha / plant injury at 250 g/ha: read-out: Corn damage rating (100=total damage to plant; 0=no damage to plant); for plant injury at 62.5 g/ha: 62.5 g ai/ha, 100=total damage to plant, 0=no damage to plant, read-out: Corn damage rating; for plant injury at 250 g/ha: 250 g ai/ha
Procedure, shortened: as §1

[5] = tested on: redroot pigweed (Amaranthus retroflexus); assay: Test G Pre-Emergence Protocol; conditions: Amaranthus retroflexus, pre-emergence, 312 h, evaluated after 13 days; for pest or weed control at 15.625 g/ha: 15.625 g ai/ha; for pest or weed control at 15.625 g/ha / pest or weed control at 250 g/ha: read-out: Pigweed, Redroot damage rating (100=total damage to plant; 0=no damage to plant); for pest or weed control at 62.5 g/ha: 62.5 g ai/ha, 100=total damage to plant, 0=no damage to plant, read-out: Pigweed, Redroot damage rating; for pest or weed control at 250 g/ha: 250 g ai/ha
Procedure, shortened: as §1

[6] = tested on: giant foxtail (Setaria faberi); assay: Test G Pre-Emergence Protocol; conditions: Setaria faberi, pre-emergence, 312 h, evaluated after 13 days; for pest or weed control at 15.625 g/ha: 15.625 g ai/ha; for pest or weed control at 15.625 g/ha / pest or weed control at 250 g/ha: read-out: Foxtail, Giant damage rating (100=total damage to plant; 0=no damage to plant); for pest or weed control at 62.5 g/ha: 62.5 g ai/ha, 100=total damage to plant, 0=no damage to plant, read-out: Foxtail, Giant damage rating; for pest or weed control at 250 g/ha: 250 g ai/ha
Procedure, shortened: as §1

[7] = tested on: ivy-leaved morning glory (Ipomoea hederacea); assay: Test G Post-Emergence Protocol; conditions: Ipomoea, post-emergence, 312 h, read-out: Morningglory, Ivy-leaved damage rating; for pest or weed control at 15.625 g/ha: 15.625 g ai/ha, evaluated after 13 days (100=total damage to plant; 0=no damage to plant); for pest or weed control at 62.5 g/ha: 62.5 g ai/ha; for pest or weed control at 62.5 g/ha / pest or weed control at 250 g/ha: evaluated after 13 days, 100=total damage to plant, 0=no damage to plant; for pest or weed control at 250 g/ha: 250 g ai/ha
Procedure, shortened: (§2)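 A glasshouse post-emergence test: 8-day-old plants sprayed at 15.625, 62.5 or 250 g/ha, then grown at 24/16 °C day/night with 14 h light and 65% humidity. Damage rated 13 days later, 0–100.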

[8] = tested on: barnyardgrass (Echinochloa crus-galli); assay: Test G Post-Emergence Protocol; conditions: Echinochloa crus-galli, post-emergence, 312 h, read-out: Barnyardgrass damage rating; for pest or weed control at 15.625 g/ha: 15.625 g ai/ha, evaluated after 13 days (100=total damage to plant; 0=no damage to plant); for pest or weed control at 62.5 g/ha: 62.5 g ai/ha; for pest or weed control at 62.5 g/ha / pest or weed control at 250 g/ha: evaluated after 13 days, 100=total damage to plant, 0=no damage to plant; for pest or weed control at 250 g/ha: 250 g ai/ha
Procedure, shortened: as §2

[9] = tested on: velvetleaf (Abutilon theophrasti); assay: Test G Post-Emergence Protocol; conditions: Abutilon theophrasti, post-emergence, 312 h, read-out: Velvetleaf damage rating; for pest or weed control at 15.625 g/ha: 15.625 g ai/ha, evaluated after 13 days (100=total damage to plant; 0=no damage to plant); for pest or weed control at 62.5 g/ha: 62.5 g ai/ha; for pest or weed control at 62.5 g/ha / pest or weed control at 250 g/ha: evaluated after 13 days, 100=total damage to plant, 0=no damage to plant; for pest or weed control at 250 g/ha: 250 g ai/ha
Procedure, shortened: as §2

corn (Zea mays) [10] = assay: Test G Post-Emergence Protocol; conditions: Zea mays, post-emergence, 312 h, read-out: Corn damage rating; for plant injury at 15.625 g/ha: 15.625 g ai/ha, evaluated after 13 days (100=total damage to plant; 0=no damage to plant); for plant injury at 62.5 g/ha: 62.5 g ai/ha; for plant injury at 62.5 g/ha / plant injury at 250 g/ha: evaluated after 13 days, 100=total damage to plant, 0=no damage to plant; for plant injury at 250 g/ha: 250 g ai/ha
Procedure, shortened: as §2

[11] = tested on: redroot pigweed (Amaranthus retroflexus); assay: Test G Post-Emergence Protocol; conditions: Amaranthus retroflexus, post-emergence, 312 h, read-out: Pigweed, Redroot damage rating; for pest or weed control at 15.625 g/ha: 15.625 g ai/ha, evaluated after 13 days (100=total damage to plant; 0=no damage to plant); for pest or weed control at 62.5 g/ha: 62.5 g ai/ha; for pest or weed control at 62.5 g/ha / pest or weed control at 250 g/ha: evaluated after 13 days, 100=total damage to plant, 0=no damage to plant; for pest or weed control at 250 g/ha: 250 g ai/ha
Procedure, shortened: as §2

[12] = tested on: giant foxtail (Setaria faberi); assay: Test G Post-Emergence Protocol; conditions: Setaria faberi, post-emergence, 312 h, read-out: Foxtail, Giant damage rating; for pest or weed control at 15.625 g/ha: 15.625 g ai/ha, evaluated after 13 days (100=total damage to plant; 0=no damage to plant); for pest or weed control at 62.5 g/ha: 62.5 g ai/ha; for pest or weed control at 62.5 g/ha / pest or weed control at 250 g/ha: evaluated after 13 days, 100=total damage to plant, 0=no damage to plant; for pest or weed control at 250 g/ha: 250 g ai/ha
Procedure, shortened: as §2

SMILES | pest or weed control at 15.625 g/ha [1] [%] | pest or weed control at 62.5 g/ha [1] [%] | pest or weed control at 250 g/ha [1] [%] | pest or weed control at 15.625 g/ha [2] [%] | pest or weed control at 62.5 g/ha [2] [%] | pest or weed control at 250 g/ha [2] [%] | pest or weed control at 15.625 g/ha [3] [%] | pest or weed control at 62.5 g/ha [3] [%] | pest or weed control at 250 g/ha [3] [%] | plant injury at 15.625 g/ha (corn (Zea mays) [4]) [%] | plant injury at 62.5 g/ha (corn (Zea mays) [4]) [%] | plant injury at 250 g/ha (corn (Zea mays) [4]) [%] | pest or weed control at 15.625 g/ha [5] [%] | pest or weed control at 62.5 g/ha [5] [%] | pest or weed control at 250 g/ha [5] [%] | pest or weed control at 15.625 g/ha [6] [%] | pest or weed control at 62.5 g/ha [6] [%] | pest or weed control at 250 g/ha [6] [%] | pest or weed control at 15.625 g/ha [7] [%] | pest or weed control at 62.5 g/ha [7] [%] | other results
COc1cc(C)cc([C@@H]2CN(C)C(=O)[C@H]2C(=O)Nc2cccc(F)c2C)c1 (racemic) [Compound 1791] | 10 | 20 | 80 | 70 | 80 | 90 | 0 | 10 | 40 | 20 | 70 | 80 | 0 | 0 | 10 | 80 | 90 | 90 | 20 | 70 | pest or weed control at 250 g/ha [7]: 70%; pest or weed control at 15.625 g/ha [8]: 70%; pest or weed control at 62.5 g/ha [8]: 80%; pest or weed control at 250 g/ha [8]: 80%; pest or weed control at 15.625 g/ha [9]: 10%; pest or weed control at 62.5 g/ha [9]: 30%; pest or weed control at 250 g/ha [9]: 20%; plant injury at 15.625 g/ha (corn (Zea mays) [10]): 30%; plant injury at 62.5 g/ha (corn (Zea mays) [10]): 70%; plant injury at 250 g/ha (corn (Zea mays) [10]): 80%; pest or weed control at 15.625 g/ha [11]: 0%; pest or weed control at 62.5 g/ha [11]: 0%; pest or weed control at 250 g/ha [11]: 0%; pest or weed control at 15.625 g/ha [12]: 80%; pest or weed control at 62.5 g/ha [12]: 80%; pest or weed control at 250 g/ha [12]: 80%
CCCOc1cc(OC(F)(F)F)cc(C2CN(C)C(=O)C2C(=O)Nc2cccc(F)c2F)c1 (stereo not drawn) [Compound 1693] | 0 | 20 | 20 | 0 | 70 | 70 | 0 | 0 | 10 | 0 | 30 | 40 | 0 | 0 | 10 | 0 | 50 | 70 | 0 | 50 | pest or weed control at 250 g/ha [7]: 60%; pest or weed control at 15.625 g/ha [8]: 0%; pest or weed control at 62.5 g/ha [8]: 30%; pest or weed control at 250 g/ha [8]: 80%; pest or weed control at 15.625 g/ha [9]: 0%; pest or weed control at 62.5 g/ha [9]: 30%; pest or weed control at 250 g/ha [9]: 20%; plant injury at 15.625 g/ha (corn (Zea mays) [10]): 0%; plant injury at 62.5 g/ha (corn (Zea mays) [10]): 10%; plant injury at 250 g/ha (corn (Zea mays) [10]): 70%; pest or weed control at 15.625 g/ha [11]: 20%; pest or weed control at 62.5 g/ha [11]: 50%; pest or weed control at 250 g/ha [11]: 60%; pest or weed control at 15.625 g/ha [12]: 0%; pest or weed control at 62.5 g/ha [12]: 60%; pest or weed control at 250 g/ha [12]: 80%
